As for `COc1ccc(C(C)(C)C)c(O)c1-c1nc2cc(S(=O)(=O)C(F)(F)F)ccc2[nH]1` [Example 8, 6-tert-Butyl-3-methoxy-2-(5-trifluoromethanesulfonyl-1H-benzimidazol-2-yl)-phenol], the melting point (usually the temperature of the solid-liquid transition) was in the range of 55 to 56 °C.
`Cc1c(Br)cc(C(C)(C)C)c(O)c1-c1nc2cc(OC(F)(F)F)ccc2[nH]1` [Example 13, 6-tert-Butyl-4-bromo-3-methyl-2-(5-trifluoromethoxy-1H-benzimidazol-2-yl)-phenol] showed a melting point of 235 to 236 °C.
In the case of `Cc1c(Cl)cc(C(C)(C)C)c(O)c1-c1nc2cc(OC(F)(F)F)ccc2[nH]1` [Example 7, 6-tert-Butyl-4-chloro-3-methyl-2-(5-trifluoromethoxy-1H-benzimidazol-2-yl)-phenol], the melting point was in the range of 243 to 244 °C.
In the case of `Cc1ccc(C(C)(C)C)c(O)c1-c1nc2ccc(S(=O)(=O)C(F)(F)F)cc2[nH]1` [Example 12, 6-tert-Butyl-3-methyl-2-(5-trifluoromethanesulfonyl-1H-benzimidazol-2-yl)-phenol] it was 218 to 220 °C; in that of `CSc1cc(C(C)(C)C)c(O)c(-c2nc3cc(S(=O)(=O)C(F)(F)F)ccc3[nH]2)c1C` [Example 9, 6-tert-Butyl-3-methyl-4-methylsulfanyl-2-(5-trifluoromethanesulfonyl-1H-benzimidazol-2-yl)-phenol], 210 to 211 °C; in that of `Cc1ccc(C(C)(C)C)c(O)c1-c1nc2cc(C#N)ccc2[nH]1` [Example 4, 2-(3-tert-Butyl-2-hydroxy-6-methyl-phenyl)-1H-benzimidazole-5-carbonitrile], 212 to 215 °C.
In the case of `Cc1c(F)cc(C(C)(C)C)c(O)c1-c1nc2ccc(S(=O)(=O)C(F)(F)F)cc2[nH]1` [Example 11, 6-tert-Butyl-4-fluoro-3-methyl-2-(5-trifluoromethanesulfonyl-1H-benzimidazol-2-yl)-phenol] it was 245 to 247 °C.
In the case of `Cc1c(Cl)cc(C(C)(C)C)c(O)c1-c1nc2cc(S(=O)(=O)C(F)(F)F)ccc2[nH]1` [Example 1, 6-tert-Butyl-4-chloro-3-methyl-2-(5-trifluoromethanesulfonyl-1H-benzimidazol-2-yl)-phenol] it was 253 to 254 °C.
As for `CCN(CC)S(=O)(=O)c1ccc2[nH]c(-c3c(C)c(Cl)cc(C(C)(C)C)c3O)nc2c1` [Example 6, 2-(3-tert-Butyl-5-chloro-2-hydroxy-6-methyl-phenyl)-1H-benzimidazole-5-sulfonic acid diethylamide], the melting point was in the range of 277 to 278 °C.

The values above are taken from patent US7915299B2, “2-(2-hydroxyphenyl)benzimidazoles useful for treating obesity and diabetes” (High Point Pharmaceuticals, LLC, priority 2006, dated 2011).
